Test results published in ChEMBL document CHEMBL5696442, “Discovery of type II inhibitors of TGFβ-activated kinase 1 (TAK1) and mitogen-activated protein kinase kinase kinase kinase 2 (MAP4K2)” (J Med Chem, 2015).
Activity calls are given as the source filed them. The rule behind the calls is not given here.

Columns and labels:
[1] = system: Epidermal growth factor receptor (Homo sapiens), P00533 [UNDEFINED MUTATION]; test: Inhibition of EGFR L747-E749del/A750P mutant (unknown origin) at 1 uM by Ambit Kinomescan binding assay relative to control
[2] = molecular target: T1, Dual specificity mitogen-activated protein kinase kinase 6 (Homo sapiens) (UniProt P52564); test: Inhibition of MAP2K6 Lys1 labeling site in human A-375 cells at 5 uM by KiNativ Profiling analysis relative to control; type: cell-based
T1 sequence (whole entry): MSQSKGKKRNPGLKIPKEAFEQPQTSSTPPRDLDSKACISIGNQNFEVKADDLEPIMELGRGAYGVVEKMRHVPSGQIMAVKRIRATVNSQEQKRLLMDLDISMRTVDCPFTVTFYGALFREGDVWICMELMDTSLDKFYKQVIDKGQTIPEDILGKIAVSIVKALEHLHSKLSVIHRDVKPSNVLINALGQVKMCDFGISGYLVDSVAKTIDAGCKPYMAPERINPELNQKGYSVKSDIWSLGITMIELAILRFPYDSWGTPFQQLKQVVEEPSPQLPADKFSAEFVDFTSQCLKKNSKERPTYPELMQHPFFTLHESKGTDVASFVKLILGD

[3] = molecular target: Mitogen-activated protein kinase kinase kinase 4 (Homo sapiens) (UniProt Q9Y6R4); test: Inhibition of MAP3K4 Lys2 labeling site in human A-375 cells at 0.05 uM by KiNativ Profiling analysis relative to control; type: cell-based
[4] = molecular target: Tyrosine-protein kinase Fer (Homo sapiens, UniProt P16591); test: Inhibition of FER (unknown origin) at 1 uM by Ambit Kinomescan binding assay relative to control; values are per cent of control
[5] = molecular target: T2, Serine/threonine-protein kinase Nek9 (Homo sapiens) (UniProt Q8TD19); test: Inhibition of NEK9 K1 labeling site harbouring TEDDSLVVWKEVDLTR in human Huh-7 cells at 10 uM by KiNativ Profiling analysis relative to control; type: cell-based
T2 sequence (whole entry): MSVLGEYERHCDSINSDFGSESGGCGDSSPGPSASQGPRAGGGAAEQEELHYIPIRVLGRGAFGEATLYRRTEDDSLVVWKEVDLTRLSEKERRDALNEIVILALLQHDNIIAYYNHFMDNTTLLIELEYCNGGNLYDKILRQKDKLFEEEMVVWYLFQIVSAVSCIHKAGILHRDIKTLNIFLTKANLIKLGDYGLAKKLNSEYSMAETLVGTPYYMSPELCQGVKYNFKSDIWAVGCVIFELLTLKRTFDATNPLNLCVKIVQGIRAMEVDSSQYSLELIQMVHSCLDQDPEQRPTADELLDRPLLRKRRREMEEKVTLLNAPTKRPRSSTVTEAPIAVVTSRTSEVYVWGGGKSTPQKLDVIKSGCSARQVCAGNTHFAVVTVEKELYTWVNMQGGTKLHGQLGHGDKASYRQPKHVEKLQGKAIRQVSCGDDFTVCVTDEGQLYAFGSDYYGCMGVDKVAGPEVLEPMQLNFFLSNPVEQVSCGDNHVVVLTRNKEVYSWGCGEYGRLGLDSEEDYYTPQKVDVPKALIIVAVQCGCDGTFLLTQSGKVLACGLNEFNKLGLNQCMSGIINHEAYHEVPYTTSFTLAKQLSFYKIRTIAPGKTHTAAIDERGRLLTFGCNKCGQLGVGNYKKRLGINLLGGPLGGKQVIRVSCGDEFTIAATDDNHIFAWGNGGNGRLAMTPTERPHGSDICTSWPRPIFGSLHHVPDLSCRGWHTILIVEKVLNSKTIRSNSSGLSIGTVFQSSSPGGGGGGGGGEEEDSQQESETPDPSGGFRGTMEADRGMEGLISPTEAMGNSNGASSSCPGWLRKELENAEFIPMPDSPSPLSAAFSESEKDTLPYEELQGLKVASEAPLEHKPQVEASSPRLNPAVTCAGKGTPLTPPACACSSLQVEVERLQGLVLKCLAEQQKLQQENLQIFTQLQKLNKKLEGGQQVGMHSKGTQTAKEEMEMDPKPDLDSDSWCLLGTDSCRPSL

[6] = molecular target: SRSF protein kinase 2 (Homo sapiens) (UniProt P78362); test: Inhibition of SRPK2 (unknown origin) at 10 uM by Ambit Kinomescan binding assay
[7] = Inhibition of NEK6/7 K2 labeling site harbouring DIKPANVFITATGVVK in human Huh-7 cells at 1 uM by KiNativ Profiling analysis relative to control; settings: condition cancer
[8] = Inhibition of Wnk1/2/3 K2 labeling site in human Huh-7 cells at 1 uM by KiNativ Profiling analysis relative to control; settings: condition cancer
[9] = molecular target: T3, Interleukin-1 receptor-associated kinase 4 (Homo sapiens) (UniProt Q9NWZ3); test: Inhibition of IRAK4 K2 labeling site in human Huh-7 cells at 10 uM by KiNativ Profiling analysis relative to control; type: cell-based
T3 sequence (whole entry): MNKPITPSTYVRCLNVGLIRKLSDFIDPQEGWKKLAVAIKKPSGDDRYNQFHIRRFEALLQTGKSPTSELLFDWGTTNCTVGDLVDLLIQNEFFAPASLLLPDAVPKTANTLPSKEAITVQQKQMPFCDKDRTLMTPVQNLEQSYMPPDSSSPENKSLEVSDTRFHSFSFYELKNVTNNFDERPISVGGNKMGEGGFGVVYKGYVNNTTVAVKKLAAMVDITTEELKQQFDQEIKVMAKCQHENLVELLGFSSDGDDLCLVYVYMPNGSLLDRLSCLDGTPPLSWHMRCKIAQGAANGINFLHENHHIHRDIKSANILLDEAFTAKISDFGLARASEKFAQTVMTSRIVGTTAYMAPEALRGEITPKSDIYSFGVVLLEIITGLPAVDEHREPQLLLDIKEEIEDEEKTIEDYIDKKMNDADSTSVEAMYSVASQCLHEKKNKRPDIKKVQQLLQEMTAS

Chain of Tyrosine-protein kinase Fer (P16591 whole entry, looked up): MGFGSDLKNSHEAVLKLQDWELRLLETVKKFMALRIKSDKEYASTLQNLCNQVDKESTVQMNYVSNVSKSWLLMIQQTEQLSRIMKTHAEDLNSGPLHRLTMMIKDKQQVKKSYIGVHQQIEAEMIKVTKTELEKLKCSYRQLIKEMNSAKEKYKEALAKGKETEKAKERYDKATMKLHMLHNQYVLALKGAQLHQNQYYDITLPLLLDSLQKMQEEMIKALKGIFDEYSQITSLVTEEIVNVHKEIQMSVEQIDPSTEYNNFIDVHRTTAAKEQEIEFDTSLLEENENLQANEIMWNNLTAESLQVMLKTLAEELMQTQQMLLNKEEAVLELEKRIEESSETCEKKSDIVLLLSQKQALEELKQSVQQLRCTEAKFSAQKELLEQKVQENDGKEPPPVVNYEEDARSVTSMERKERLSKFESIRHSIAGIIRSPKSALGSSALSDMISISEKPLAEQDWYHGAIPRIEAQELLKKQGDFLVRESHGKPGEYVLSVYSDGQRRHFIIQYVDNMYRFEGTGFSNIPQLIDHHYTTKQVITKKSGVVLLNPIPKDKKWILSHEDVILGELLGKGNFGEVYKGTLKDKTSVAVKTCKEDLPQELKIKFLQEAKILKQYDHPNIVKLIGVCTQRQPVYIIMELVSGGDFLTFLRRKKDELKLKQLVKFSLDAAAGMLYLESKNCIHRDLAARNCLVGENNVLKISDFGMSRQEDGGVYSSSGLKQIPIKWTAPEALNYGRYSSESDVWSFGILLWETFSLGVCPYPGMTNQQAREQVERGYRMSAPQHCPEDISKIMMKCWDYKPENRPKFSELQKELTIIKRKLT
Chain of SRSF protein kinase 2 (Homo sapiens) (P78362 whole entry, looked up): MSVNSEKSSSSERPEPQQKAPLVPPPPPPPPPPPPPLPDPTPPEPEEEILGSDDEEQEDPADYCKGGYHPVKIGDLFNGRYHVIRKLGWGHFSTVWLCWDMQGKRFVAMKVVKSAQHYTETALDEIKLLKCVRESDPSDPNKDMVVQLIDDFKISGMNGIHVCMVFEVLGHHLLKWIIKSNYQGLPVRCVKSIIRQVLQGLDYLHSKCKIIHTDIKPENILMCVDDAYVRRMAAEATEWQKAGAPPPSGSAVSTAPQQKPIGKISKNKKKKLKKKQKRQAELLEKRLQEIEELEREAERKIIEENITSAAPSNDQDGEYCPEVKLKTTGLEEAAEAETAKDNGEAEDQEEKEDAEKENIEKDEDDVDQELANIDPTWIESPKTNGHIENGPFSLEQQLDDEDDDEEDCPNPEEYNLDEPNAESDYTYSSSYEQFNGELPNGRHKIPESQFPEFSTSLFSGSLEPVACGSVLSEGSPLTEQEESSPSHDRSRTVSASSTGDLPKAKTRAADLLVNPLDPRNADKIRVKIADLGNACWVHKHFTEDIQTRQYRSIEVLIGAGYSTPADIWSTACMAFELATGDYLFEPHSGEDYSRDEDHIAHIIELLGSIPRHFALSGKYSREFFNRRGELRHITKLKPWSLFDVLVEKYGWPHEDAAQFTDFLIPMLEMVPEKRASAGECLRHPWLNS
Chain of Mitogen-activated protein kinase kinase kinase 4 (Homo sapiens) (Q9Y6R4 whole entry): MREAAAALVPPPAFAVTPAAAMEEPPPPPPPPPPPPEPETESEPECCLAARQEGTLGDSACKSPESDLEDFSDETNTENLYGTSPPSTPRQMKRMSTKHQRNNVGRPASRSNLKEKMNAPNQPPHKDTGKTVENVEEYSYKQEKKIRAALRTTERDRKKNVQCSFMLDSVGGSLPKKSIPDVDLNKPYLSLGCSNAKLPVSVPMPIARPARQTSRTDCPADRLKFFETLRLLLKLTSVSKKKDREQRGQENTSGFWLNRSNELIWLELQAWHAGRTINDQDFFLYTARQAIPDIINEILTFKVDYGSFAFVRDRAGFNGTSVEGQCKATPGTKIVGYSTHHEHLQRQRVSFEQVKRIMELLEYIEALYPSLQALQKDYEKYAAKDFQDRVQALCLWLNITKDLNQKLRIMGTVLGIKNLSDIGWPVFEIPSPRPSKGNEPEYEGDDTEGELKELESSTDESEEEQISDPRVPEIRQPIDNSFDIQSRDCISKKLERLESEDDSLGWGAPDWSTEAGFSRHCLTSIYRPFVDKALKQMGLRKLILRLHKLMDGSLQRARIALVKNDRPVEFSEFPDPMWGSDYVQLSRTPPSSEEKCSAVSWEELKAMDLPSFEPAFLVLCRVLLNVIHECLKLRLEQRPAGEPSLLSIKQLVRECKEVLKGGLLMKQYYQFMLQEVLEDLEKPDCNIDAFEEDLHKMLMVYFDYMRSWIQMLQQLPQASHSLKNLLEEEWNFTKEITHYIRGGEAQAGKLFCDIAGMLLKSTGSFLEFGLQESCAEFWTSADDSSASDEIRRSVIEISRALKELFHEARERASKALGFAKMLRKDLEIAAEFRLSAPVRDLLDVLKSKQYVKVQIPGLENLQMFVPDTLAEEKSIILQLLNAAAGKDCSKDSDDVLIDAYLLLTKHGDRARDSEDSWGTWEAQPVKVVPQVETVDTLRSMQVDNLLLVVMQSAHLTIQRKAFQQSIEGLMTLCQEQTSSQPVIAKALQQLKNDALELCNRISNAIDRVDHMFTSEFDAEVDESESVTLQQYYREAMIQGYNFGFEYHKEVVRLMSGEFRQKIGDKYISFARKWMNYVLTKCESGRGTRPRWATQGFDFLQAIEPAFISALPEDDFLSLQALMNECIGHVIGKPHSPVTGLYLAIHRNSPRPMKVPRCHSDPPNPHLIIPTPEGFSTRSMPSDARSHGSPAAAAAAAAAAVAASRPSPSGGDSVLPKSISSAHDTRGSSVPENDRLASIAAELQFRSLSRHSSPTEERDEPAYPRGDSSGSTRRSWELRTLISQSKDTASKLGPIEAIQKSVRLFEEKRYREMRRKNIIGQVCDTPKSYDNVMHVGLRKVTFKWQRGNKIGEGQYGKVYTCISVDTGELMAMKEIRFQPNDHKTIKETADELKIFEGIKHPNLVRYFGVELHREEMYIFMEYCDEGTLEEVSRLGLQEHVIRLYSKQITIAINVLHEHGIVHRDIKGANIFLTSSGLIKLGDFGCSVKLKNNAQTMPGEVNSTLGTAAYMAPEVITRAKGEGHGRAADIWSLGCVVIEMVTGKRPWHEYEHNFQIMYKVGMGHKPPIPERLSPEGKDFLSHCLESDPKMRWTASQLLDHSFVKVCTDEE
Chain of Epidermal growth factor receptor (Homo sapiens), P00533 [UNDEFINED MUTATION] (P00533 whole entry, looked up, stated change not applied): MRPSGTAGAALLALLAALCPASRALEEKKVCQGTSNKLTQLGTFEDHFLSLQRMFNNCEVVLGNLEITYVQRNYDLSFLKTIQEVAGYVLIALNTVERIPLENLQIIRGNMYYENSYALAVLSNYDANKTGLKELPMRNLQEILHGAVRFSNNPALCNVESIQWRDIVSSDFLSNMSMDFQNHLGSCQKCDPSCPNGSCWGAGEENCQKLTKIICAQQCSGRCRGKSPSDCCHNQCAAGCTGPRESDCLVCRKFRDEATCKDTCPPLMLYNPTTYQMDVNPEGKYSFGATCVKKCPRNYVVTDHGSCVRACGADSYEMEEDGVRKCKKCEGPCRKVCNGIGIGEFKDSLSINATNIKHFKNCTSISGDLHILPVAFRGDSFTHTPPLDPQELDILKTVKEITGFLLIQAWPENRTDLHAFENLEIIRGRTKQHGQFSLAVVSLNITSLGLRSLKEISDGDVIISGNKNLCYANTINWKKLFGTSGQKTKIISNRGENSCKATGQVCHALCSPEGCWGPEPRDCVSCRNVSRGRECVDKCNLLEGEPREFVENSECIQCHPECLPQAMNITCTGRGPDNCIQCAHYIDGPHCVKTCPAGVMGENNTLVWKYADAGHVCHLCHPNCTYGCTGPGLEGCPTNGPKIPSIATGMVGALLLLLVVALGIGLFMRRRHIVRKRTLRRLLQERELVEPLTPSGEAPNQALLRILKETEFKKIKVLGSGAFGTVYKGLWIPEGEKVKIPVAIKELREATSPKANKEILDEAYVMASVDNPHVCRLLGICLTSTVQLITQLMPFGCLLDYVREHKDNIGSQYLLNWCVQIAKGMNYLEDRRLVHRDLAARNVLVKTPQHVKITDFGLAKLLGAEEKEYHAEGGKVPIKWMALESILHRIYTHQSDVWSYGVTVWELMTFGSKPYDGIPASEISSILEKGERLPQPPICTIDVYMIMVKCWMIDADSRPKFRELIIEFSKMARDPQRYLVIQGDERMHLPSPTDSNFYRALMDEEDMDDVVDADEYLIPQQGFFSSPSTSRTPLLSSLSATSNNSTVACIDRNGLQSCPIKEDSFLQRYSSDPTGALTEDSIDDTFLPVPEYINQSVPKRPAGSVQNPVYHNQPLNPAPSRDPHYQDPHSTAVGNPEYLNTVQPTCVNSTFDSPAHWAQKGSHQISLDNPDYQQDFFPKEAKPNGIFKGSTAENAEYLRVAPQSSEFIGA

Row | Structure (SMILES) | inhibition [1] [%] | inhibition [2] [%] | inhibition [3] [%] | residual activity [4] [%] | inhibition [5] [%] | inhibition [6] | inhibition at 1 µM [7] [%] | inhibition at 1 µM [8] [%] | inhibition [9] [%]
1 | CCN1CCN(Cc2ccc(NC(=O)c3ccc(C)c(/C=C/c4cnc5[nH]ccc5c4OC)c3)cc2C(F)(F)F)CC1 | 3 | -0.7 | -0.6 | 21 |  |  |  |  | 
2 | CCN1CCN(Cc2ccc(NC(=O)c3ccc(C)c(Oc4ccnc5[nH]ccc45)c3)cc2C(F)(F)F)CC1 |  |  |  |  | 18.6 | inactive | -13.1 | -17.1 | 17.8
